Laboratory results from US11814367B2, “Inhibitors of glycogen synthase 1 (GYS1) and methods of use thereof” (Maze Therapeutics, Inc., priority 2021, dated 2023).

Assays:
[1] = molecular target: hGYS2 enzyme (recombinant hGYS2/GN1 protein) (Homo sapiens (Human), UniProt P54840); test: GYS2 coupled enzyme assay (PK/LDH); type: biochemical; conditions: geometric mean of at least 2 assay runs on separate days, read-out: Avg_IC50
Method in brief: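 hGYS2/GN1 200 nM; UDP-Glc 2 mM; glycogen 0.2%; G6P 2 mM; PEP 2 mM, NADH 0.6 mM, PK/LDH 20 U/mL. 50 mM Tris pH 7.5, MgCl2, KCl, BSA, TCEP, 2.5% DMSO. Kinetic A340, 10 min. IC50 = geomean of ≥2 runs.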

[2] = molecular target: hGYS1 enzyme (recombinant hGYS1/GN1 protein) (Homo sapiens (Human), UniProt P13807); test: GYS1 coupled enzyme assay (PK/LDH); type: biochemical; conditions: hGYS1/GN1 50 nM, UDP-Glucose 0.8 mM, G6P 1 mM; geometric mean of at least 2 runs
[3] = test system: hGYS1 enzyme / glycogen synthesis in HeLa cells; test: GYS1 cell based assay (glycogen synthesis, Glucose-glo); design: species or system human; conditions: Homo sapiens, HeLa, 24 h, 24 h incubation, 20 mM glucose, geometric mean of at least 2 runs
Method in brief: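 HeLa cells starved 24 h in medium containing only 1× Glutamax were plated onto compound in medium with 20 mM glucose (1% DMSO final) for 24 h, 37 °C, 5% CO2. Acid lysates were Tris-quenched, glucoamylase-digested (pH 5.3, 1 h, 37 °C) and read by Glucose-glo luminescence. IC50 came from Hill fits, as geometric mean of ≥2 runs.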

Chain of hGYS2 enzyme (recombinant hGYS2/GN1 protein) (P54840 whole entry): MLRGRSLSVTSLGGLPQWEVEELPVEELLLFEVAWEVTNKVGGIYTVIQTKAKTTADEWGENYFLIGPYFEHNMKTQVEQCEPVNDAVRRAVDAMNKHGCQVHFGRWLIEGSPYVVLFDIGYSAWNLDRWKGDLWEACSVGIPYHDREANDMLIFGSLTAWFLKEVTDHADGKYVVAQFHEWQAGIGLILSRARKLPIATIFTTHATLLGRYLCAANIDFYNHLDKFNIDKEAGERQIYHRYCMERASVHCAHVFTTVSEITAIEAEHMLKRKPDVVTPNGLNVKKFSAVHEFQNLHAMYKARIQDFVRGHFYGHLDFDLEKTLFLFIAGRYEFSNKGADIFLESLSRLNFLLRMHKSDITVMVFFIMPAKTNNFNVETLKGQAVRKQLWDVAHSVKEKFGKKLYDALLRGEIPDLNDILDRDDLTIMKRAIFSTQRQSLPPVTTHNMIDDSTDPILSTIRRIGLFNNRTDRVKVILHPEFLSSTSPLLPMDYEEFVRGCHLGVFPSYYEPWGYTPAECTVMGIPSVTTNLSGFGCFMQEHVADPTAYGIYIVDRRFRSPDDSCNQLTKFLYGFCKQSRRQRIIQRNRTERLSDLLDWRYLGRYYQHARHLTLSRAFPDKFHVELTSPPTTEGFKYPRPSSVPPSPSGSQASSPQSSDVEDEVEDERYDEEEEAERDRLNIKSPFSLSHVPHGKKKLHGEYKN
Chain of hGYS2 enzyme (recombinant hGYS2/GN1 protein) (P46976 whole entry partner): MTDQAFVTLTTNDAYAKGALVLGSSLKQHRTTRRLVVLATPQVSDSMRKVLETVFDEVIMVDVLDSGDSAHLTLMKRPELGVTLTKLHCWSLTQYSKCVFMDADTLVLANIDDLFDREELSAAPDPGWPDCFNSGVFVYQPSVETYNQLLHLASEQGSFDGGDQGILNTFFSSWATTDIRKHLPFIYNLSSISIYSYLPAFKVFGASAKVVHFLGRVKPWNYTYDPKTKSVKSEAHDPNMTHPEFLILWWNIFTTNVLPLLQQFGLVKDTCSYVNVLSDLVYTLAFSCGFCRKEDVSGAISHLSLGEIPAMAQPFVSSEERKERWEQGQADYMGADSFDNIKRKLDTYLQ
Chain of hGYS1 enzyme (recombinant hGYS1/GN1 protein) (P13807 whole entry): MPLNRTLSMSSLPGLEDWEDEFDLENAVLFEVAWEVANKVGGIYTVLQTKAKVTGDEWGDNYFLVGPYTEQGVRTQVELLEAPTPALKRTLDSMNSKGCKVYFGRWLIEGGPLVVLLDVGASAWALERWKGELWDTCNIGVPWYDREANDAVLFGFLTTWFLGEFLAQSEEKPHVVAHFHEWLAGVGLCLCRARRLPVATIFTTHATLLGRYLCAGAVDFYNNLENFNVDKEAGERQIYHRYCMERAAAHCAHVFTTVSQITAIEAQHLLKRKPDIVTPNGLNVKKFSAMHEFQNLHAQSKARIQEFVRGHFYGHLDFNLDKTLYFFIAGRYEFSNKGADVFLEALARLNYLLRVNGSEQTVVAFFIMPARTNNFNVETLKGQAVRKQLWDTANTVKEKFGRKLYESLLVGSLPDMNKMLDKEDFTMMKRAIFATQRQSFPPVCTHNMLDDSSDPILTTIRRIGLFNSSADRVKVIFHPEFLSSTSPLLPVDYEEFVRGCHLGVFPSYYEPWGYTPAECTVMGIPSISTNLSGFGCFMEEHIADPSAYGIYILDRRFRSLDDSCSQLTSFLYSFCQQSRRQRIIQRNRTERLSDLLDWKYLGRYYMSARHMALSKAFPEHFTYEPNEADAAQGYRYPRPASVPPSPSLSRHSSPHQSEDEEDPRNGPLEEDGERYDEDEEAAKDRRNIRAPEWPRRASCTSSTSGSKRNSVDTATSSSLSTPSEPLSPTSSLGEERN
Chain of hGYS1 enzyme (recombinant hGYS1/GN1 protein) (P46976 whole entry partner): as the sequence (P46976 whole entry partner) above

Row | Compound | IC50 [1] | IC50 [2] | IC50 [3]
1 | Cc1cn(CC(=O)N2C[C@H](F)C[C@H]2C(=O)N[C@@H](c2ccccc2)c2ccc(C3(C)CC3)c(F)c2)c(=O)[nH]c1=O [Compound 556, (2S,4R)-4-fluoro-N—((S)-(3-fluoro-4-(1-methylcyclopropyl)phenyl)(phenyl)methyl)-1-(2-(5-methyl-2,4-dioxo-3,4-dihydropyrimidin-1(2H)-yl)acetyl)pyrrolidine-2-carboxamide] | > 100000 nM | 27 nM | 760 nM
2 | CC(C)c1ccc([C@@H](NC(=O)[C@@H]2C[C@@H](F)CN2C(=O)Cc2n[nH]c(=O)[nH]2)c2ccccc2)nc1 [Compound 284, (2S,4R)-4-fluoro-1-[2-(5-oxo-4,5-dihydro-1H-1,2,4-triazol-3-yl)acetyl]-N-[(S)-phenyl[5-(propan-2-yl)pyridin-2-yl]methyl]pyrrolidine-2-carboxamide] | > 100000 nM | 90 nM | 5190 nM
3 | CC(C)c1ccc([C@@H](NC(=O)[C@@H]2C[C@@H](F)CN2C(=O)Cc2nn(C)c(=O)n2C)c2ccccc2)nc1 [Compound 710, (2S,4R)-1-[2-(1,4-dimethyl-5-oxo-4,5-dihydro-1H-1,2,4-triazol-3-yl)acetyl]-4-fluoro-N-[(S)-phenyl[5-(propan-2-yl)pyridin-2-yl]methyl]pyrrolidine-2-carboxamide] | > 100000 nM | 146 nM | 2340 nM
4 | CN1CCN(C(=O)OCC(=O)N2C[C@H](F)C[C@H]2C(=O)N[C@@H](c2ccccc2)c2ccc(C3CC3)c(F)c2)CC1 [Compound 445, 2-[(2S,4R)-2-{[(S)-(4-cyclopropyl-3-fluorophenyl)(phenyl)methyl]carbamoyl}-4-fluoropyrrolidin-1-yl]-2-oxoethyl 4-methylpiperazine-1-carboxylate] | > 100000 nM | 75 nM | 1660 nM
5 | CCN(CC)c1cnn(CC(=O)N2C[C@H](F)C[C@H]2C(=O)N[C@@H](c2ccccc2)c2ccc(C3CC3)c(F)n2)n1 [Compound 319, (2S,4R)-N-[(S)-(5-cyclopropyl-6-fluoropyridin-2-yl)(phenyl)methyl]-1-{2-[4-(diethylamino)-2H-1,2,3-triazol-2-yl]acetyl}-4-fluoropyrrolidine-2-carboxamide] | > 100000 nM | 7 nM | 240 nM
6 | Cn1c(=O)ccn(CC(=O)N2C[C@H](F)C[C@H]2C(=O)N[C@@H](c2ccccc2)c2ccc(C3CC3)c(F)c2)c1=O [Compound 449, (2S,4R)-N-[(S)-(4-cyclopropyl-3-fluorophenyl)(phenyl)methyl]-4-fluoro-1-[2-(3-methyl-2,4-dioxo-1,2,3,4-tetrahydropyrimidin-1-yl)acetyl]pyrrolidine-2-carboxamide] | > 100000 nM | 39 nM | 700 nM
7 | CCn1cc(CC(=O)N2C[C@H](F)C[C@H]2C(=O)N[C@@H](c2ccccc2)c2ccc(C3CC(F)(F)C3)c(F)n2)ccc1=O [Compound 519, (2S,4R)-N-[(S)-[5-(3,3-difluorocyclobutyl)-6-fluoropyridin-2-yl](phenyl)methyl]-1-[2-(1-ethyl-6-oxo-1,6-dihydropyridin-3-yl)acetyl]-4-fluoropyrrolidine-2-carboxamide] | > 100000 nM | 8 nM | 220 nM
8 | CC(C)c1ccc([C@@H](NC(=O)[C@@H]2C[C@@H](F)CN2C(=O)Cn2ccc(C(F)(F)F)n2)c2ccccc2)nc1F [Compound 790, (2S,4R)-4-fluoro-N-[(S)-[6-fluoro-5-(propan-2-yl)pyridin-2-yl](phenyl)methyl]-1-{2-[3-(trifluoromethyl)-1H-pyrazol-1-yl]acetyl} pyrrolidine-2-carboxamide] | > 100000 nM | 8 nM | 250 nM
9 | Cc1cn(CC(=O)N2C[C@H](F)C[C@H]2C(=O)N[C@@H](c2ccccc2)c2ccc(C(C)C)c(F)c2)nn1 [Compound 373, (2S,4R)-4-fluoro-N-[(S)-[3-fluoro-4-(propan-2-yl)phenyl](phenyl)methyl]-1-[2-(4-methyl-1H-1,2,3-triazol-1-yl)acetyl]pyrrolidine-2-carboxamide] | > 100000 nM | 14 nM | 210 nM
